Structures can show the parent of a compound that is named as a salt.
test system: hyperactivity caused by MK-801; experiment: Improvement effect on increase in motion induced by methamphetamine or MK-801 in mice; assay type: in vivo; details: male ICR mouse; oral dose 0.03 mg/kg; MK-801 0.3 mg/kg i.p.; motion measured 60 minutes; significance P<0.05
Protocol: The improvement effect of compound of formula (I) was evaluated by measuring the quantity of motion by IR irradiation when a compound was administered to a mouse in which hyperactivity was caused by methamphetamine (hereinafter, simply referred to as “MAP”) or MK-801, known as an animal model of schizophrenia.
An animal was taken out of a breeding cage, orally administered with a compound to be tested, and then placed into a cage for breeding. After 30 minutes, the animal was put into a cage for measurement, and the motion with the compound to be tested alone was measured. Further, after 30 to 90 minutes, the animal was taken out, and intraperitoneally administered with a drug for increasing the motion (MAP; 1 mg/kg or MK-801; 0.3 mg/kg, dissolved in a physiological saline, respectively). Then, the motion for a certain period of time (60 minutes) was measured by using a motion measurement device (CompACT AMS from Muromachi Kikai Co., Ltd.) by means of an infrared sensor.
For a normal mouse (a mouse administered with physiological saline) and a mouse administered with a drug for increasing the motion, a Student's T test was performed for evaluation for each interval. For a group administered with the compound to be tested, an assay was performed using a solvent (vehicle) group and a Dunnett's T test. […]

Structure (SMILES) | inhibition of hyperactivity (motion) caused by MK-801
N#Cc1ccc2ccc(C(=O)N=C(N)N)cc2c1-c1c(F)cccc1Cl [Example 1, 8-(2-chloro-6-fluorophenyl)-7-cyano-N-(diaminomethylene)-2-naphthamide hydrochloride] | significantly inhibited

target: T1, human 5-HT5A receptor (Homo sapiens, UniProt P47898); experiment: Test on a human 5-HT5A receptor binding inhibition ([3H]5-CT, membrane from HEK293 cells); details: human 5-HT5A receptor membrane; read-out: Kd value of [3H]5-CT determined from Scatchard analysis
T1 construct: expressed in transfected cells; membrane preparation
T1 sequence (P47898 whole entry): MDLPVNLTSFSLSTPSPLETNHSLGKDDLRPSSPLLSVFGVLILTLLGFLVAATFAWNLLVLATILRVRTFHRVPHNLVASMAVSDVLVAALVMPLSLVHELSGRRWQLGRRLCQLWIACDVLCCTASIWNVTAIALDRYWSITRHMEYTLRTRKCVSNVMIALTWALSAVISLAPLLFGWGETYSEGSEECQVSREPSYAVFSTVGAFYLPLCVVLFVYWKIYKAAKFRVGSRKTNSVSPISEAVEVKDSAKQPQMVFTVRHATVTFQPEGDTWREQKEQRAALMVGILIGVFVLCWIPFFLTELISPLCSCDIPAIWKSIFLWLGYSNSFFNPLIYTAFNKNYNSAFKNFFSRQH
Protocol: The ORF (open reading frame; protein coding region) of a human 5-HT5A receptor (Genbank AF498985) was cloned from a human hippocampus cDNA library, and then inserted into a pCR2.1 vector (Invitrogen), and Escherichia coli containing the plasmid was cultured in a large amount. Next, the full-length cDNA sequence of the human 5-HT5A receptor was analyzed, and recombined into a pCDNA3.1 vector (Invitrogen) as an expression vector and cultured in a large amount. HEK293 established cells (ATCC) derived from the human fetal kidney were seeded, the expression plasmid (1 μg) obtained above were added thereto with LIPOFECTAMINE 2000 (Invitrogen; 2 μl), the gene was transfected into HEK293 cells, and the expression cells were screened with a drug-resistant marker, Geneticin (G418 sulfate 500 μg/ml; Kanto Chemical Co., Inc.). Thus prepared recombinant cells which expressed the gene were cultured in a medium containing D-MEM (Dulbecco's modified eagle medium, Sigma), 10% FCS (Fetal calf serum: fetal bovine serum), 1% Pc./Sm (Penicillin/Streptomycin, Invitrogen), and 500 μg/ml G418 for 3 days. These experimental operations followed a manual for gene operation experiment and an instruction appended in a reagent, and the like, such as a known method (Sambrook, J. et al, Molecular Cloning—A Laboratory Manual”, Cold Spring Harbor laboratory, NY, 1989).
HEK293 cells for forced expressions of a human 5-HT5A receptor were cultured in a F500 plate, and scraped with a scraper. After centrifugation, the precipitate was collected, and an incubation buffer (50 mM Tris (HCl) (pH 7.4), 10 mM MgSO4, and 0.5 mM EDTA (ethylenediamine tetraacetic acid)) was added thereto. After homogenization, it was further centrifuged, and the incubation buffer was added to the precipitate, followed by thoroughly suspending. The operation was repeated, and protein concentration was measured, thereby completing preparation of the membrane.
A solution of the compound to be tested and 100 μM 5-CT (5-carboxamidetriptamine) in DMSO was added to a 96-well plate at 2 μl/well, suspended in an incubation buffer, and a membrane from HEK293 cells for forced expressions of a human 5-HT5A receptor prepared at 200 μg/ml was added at 100 μl/well. After incubation at room temperature for 15 minutes, a [^3H]5-CT solution (2 nM [^3H]5-CT, incubation buffer) was added thereto at 100 μl/well.
Separately, 100 μl of the solution was distributed into a liquid scintillation vial, and 2 ml of Aquasol II (registered trademark) was added thereto, followed by stirring. Then, radioactivity was measured by a liquid scintillation counter. It was incubated at 37° C. for 60 minutes. The reaction mixture was sucked into 96-well GF/C filter plate that had been pre-treated with 0.2% polyethyleneimine, and washed six times with an ice-cooled, 50 mM Tris (pH 7.5) buffer. The GF/C filter plate was dried.
Microscint TMPS (registered trademark) was added thereto at 40 μl/well. Radioactivity remaining on the GF/C filter plate was measured by a top counter.
The [^3H]5-CT binding inhibiting activity by the compound to be tested in each experiment was determined as an IC50 value with a radioactivity upon addition of DMSO alone being 0% inhibition, and a radioactivity upon addition of 1 μM 5-CT being 100% inhibition. Separately, Ki values were calculated from the Kd value of the [^3H]5-CT determined from Scatchard analysis, by the following equation.

Structure (SMILES) | Kd [nM]
NCCc1c[nH]c2ccc(C(N)=O)cc12 [[^3H]5-CT, 5-carboxamidetriptamine, reference compound] | 4.95

same assay, conditions: membrane from HEK293 cells expressing human 5-HT5A receptor; Ki calculated from IC50 and Kd of [3H]5-CT

Structure (SMILES) | Ki [nM]
N#Cc1cc(F)c(-c2c(F)cc(F)cc2F)c2cc(C(=O)N=C(N)N)ccc12 [Example 5] | 1 to 30
N#Cc1ccc2ccc(C(=O)N=C(N)N)cc2c1-c1ccc(F)cc1F [Example 6] | 1 to 30
N#Cc1ccc2ccc(C(=O)N=C(N)N)cc2c1-c1ccc(F)cc1 [Example 14] | 1 to 30
CS(=O)(=O)c1ccc2ccc(C(=O)N=C(N)N)cc2c1-c1c(F)cc(F)cc1F [Example 13] | 30 to 300
N#Cc1ccc2ccc(C(=O)N=C(N)N)cc2c1C1CC1 [Example 21] | 30 to 300
N#Cc1ccc2ccc(C(=O)N=C(N)N)cc2c1-c1c(F)cccc1Cl [Example 1, 8-(2-chloro-6-fluorophenyl)-7-cyano-N-(diaminomethylene)-2-naphthamide hydrochloride] | 4.3
CSc1ccc2ccc(C(=O)N=C(N)N)cc2c1-c1c(F)cc(F)cc1F [Example 12] | 1 to 30
N#Cc1ccc2ccc(C(=O)N=C(N)N)cc2c1-c1c(F)cc(F)cc1F [Example 2] | 1 to 30
N#Cc1ccc2ccc(C(=O)N=C(N)N)cc2c1-c1ccncc1Cl [Example 3] | 30 to 300
N#Cc1ccc2ccc(C(=O)N=C(N)N)cc2c1-c1ccccc1 [Example 20] | 1 to 30
COc1cccc(F)c1-c1c(C#N)ccc2ccc(C(=O)N=C(N)N)cc12 [Example 8] | 1 to 30
N#Cc1ccc2ccc(C(=O)N=C(N)N)cc2c1-c1ccccc1Cl [Example 9] | 1 to 30
N#Cc1ccc2ccc(C(=O)N=C(N)N)cc2c1-c1c(F)cccc1F [Example 7] | 1 to 30
N#Cc1cc(F)c(-c2ccncc2)c2cc(C(=O)N=C(N)N)ccc12 [Example 19] | 30 to 300
N#Cc1ccc2ccc(C(=O)N=C(N)N)cc2c1-c1c(F)cc(CO)cc1F [Example 17] | 30 to 300
N#Cc1ccc2ccc(C(=O)N=C(N)N)cc2c1-c1c(F)cncc1F [Example 18] | 1 to 30
COc1cc(C#N)ccc1-c1c(C#N)ccc2ccc(C(=O)N=C(N)N)cc12 [Example 15] | 30 to 300
N#Cc1ccc2ccc(C(=O)N=C(N)N)cc2c1-c1ccncc1F [Example 4] | 30 to 300
N#Cc1ccc2ccc(C(=O)N=C(N)N)cc2c1C1=CCOCC1 [Example 16] | 30 to 300
N#Cc1ccc2ccc(C(=O)N=C(N)N)cc2c1-c1ccccc1F [Example 10] | 1 to 30

Source: patent US20120041036A1, “SUBSTITUTED ACYLGUANIDINE DERIVATIVES (AS AMENDED)” (priority 2009, published 2012)
